Assay results as given in PubChem BioAssay (NCI).
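These data come from cells grown in 96-well plates and exposed to compound for 48 hours at five concentrations. TGI: total growth inhibition.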

Assays:
Assay in all cases: NCI tumour cell line growth inhibition, 48 h
KM12 colon = test system: KM12 colon
OVCAR-8 ovarian = test system: OVCAR-8 ovarian
U251 CNS = test system: U251 CNS
EKVX NSCLC = test system: EKVX NSCLC
MCF7 breast = test system: MCF7 breast
OVCAR-5 ovarian = test system: OVCAR-5 ovarian
NCI-H460 lung = test system: NCI-H460 lung
A549 NSCLC = test system: A549 NSCLC
M14 melanoma = test system: M14 melanoma
NCI-H226 lung = test system: NCI-H226 lung
NCI/ADR-RES ovarian = test system: NCI/ADR-RES ovarian
HCC-2998 colon = test system: HCC-2998 colon
SK-MEL-2 melanoma = test system: SK-MEL-2 melanoma
UACC-257 melanoma = test system: UACC-257 melanoma
PC-3 prostate = test system: PC-3 prostate
MDA-MB-435 = test system: MDA-MB-435
SW-620 colon = test system: SW-620 colon
UACC-62 melanoma = test system: UACC-62 melanoma
IGROV1 ovarian = test system: IGROV1 ovarian
A498 renal = test system: A498 renal
OVCAR-3 ovarian = test system: OVCAR-3 ovarian
RPMI-8226 leukemia = test system: RPMI-8226 leukemia
HL-60(TB) leukemia = test system: HL-60(TB) leukemia
MDA-N = test system: MDA-N
COLO 205 colon = test system: COLO 205 colon
SF-539 CNS = test system: SF-539 CNS
TK-10 renal = test system: TK-10 renal
CCRF-CEM leukemia = test system: CCRF-CEM leukemia
MALME-3M melanoma = test system: MALME-3M melanoma
HOP-92 NSCLC = test system: HOP-92 NSCLC
OVCAR-4 ovarian = test system: OVCAR-4 ovarian
LOX IMVI melanoma = test system: LOX IMVI melanoma
SK-OV-3 ovarian = test system: SK-OV-3 ovarian
HCT-116 colon = test system: HCT-116 colon
DU-145 prostate = test system: DU-145 prostate
UO-31 renal = test system: UO-31 renal
786-0 renal = test system: 786-0 renal
HCT-15 colon = test system: HCT-15 colon
SN12C renal = test system: SN12C renal
K-562 leukemia = test system: K-562 leukemia
SF-295 CNS = test system: SF-295 CNS
SK-MEL-28 melanoma = test system: SK-MEL-28 melanoma
NCI-H522 lung = test system: NCI-H522 lung
BT-549 breast = test system: BT-549 breast
SNB-19 CNS = test system: SNB-19 CNS
SK-MEL-5 melanoma = test system: SK-MEL-5 melanoma
RXF 393 renal = test system: RXF 393 renal
CAKI-1 renal = test system: CAKI-1 renal
MDA-MB-231 breast = test system: MDA-MB-231 breast
NCI-H23 lung = test system: NCI-H23 lung
SNB-75 CNS = test system: SNB-75 CNS
HOP-62 NSCLC = test system: HOP-62 NSCLC
HS 578T breast = test system: HS 578T breast
T-47D breast = test system: T-47D breast
ACHN renal = test system: ACHN renal
MOLT-4 leukemia = test system: MOLT-4 leukemia
HT29 colon = test system: HT29 colon
SF-268 CNS = test system: SF-268 CNS
SR leukemia = test system: SR leukemia

`Cc1c(N/C=C(\C#N)C(=O)c2ccc(Cl)cc2)c(=O)n(-c2ccccc2)n1C` gave a TGI (KM12 colon) greater than 100 µM, a TGI (OVCAR-8 ovarian) greater than 100 µM and a TGI (U251 CNS) greater than 100 µM. For the same compound, the TGI (EKVX NSCLC) was greater than 100 µM, the TGI (MCF7 breast) was greater than 100 µM and the TGI (OVCAR-5 ovarian) was greater than 100 µM. The TGI (NCI-H460 lung) was greater than 100 µM, the TGI (A549 NSCLC) was greater than 100 µM and the TGI (M14 melanoma) was greater than 100 µM. For the same compound, the TGI (NCI-H226 lung) was greater than 100 µM, the TGI (NCI/ADR-RES ovarian) was greater than 100 µM and the TGI (HCC-2998 colon) was greater than 100 µM. The TGI (SK-MEL-2 melanoma) was greater than 100 µM, the TGI (UACC-257 melanoma) was greater than 100 µM and the TGI (PC-3 prostate) was greater than 100 µM. It also gave a TGI (MDA-MB-435) greater than 100 µM, a TGI (SW-620 colon) greater than 100 µM and a TGI (UACC-62 melanoma) greater than 100 µM. For the same compound, the TGI (IGROV1 ovarian) was greater than 100 µM, the TGI (A498 renal) was greater than 100 µM and the TGI (OVCAR-3 ovarian) was greater than 100 µM. For the same compound, the TGI (RPMI-8226 leukemia) was greater than 100 µM, the TGI (HL-60(TB) leukemia) was greater than 100 µM and the TGI (MDA-N) was greater than 100 µM. For the same compound, the TGI (COLO 205 colon) was greater than 100 µM, the TGI (SF-539 CNS) was greater than 100 µM and the TGI (TK-10 renal) was greater than 100 µM. The TGI (CCRF-CEM leukemia) was greater than 100 µM, the TGI (MALME-3M melanoma) was greater than 100 µM and the TGI (HOP-92 NSCLC) was greater than 100 µM. For the same compound, the TGI (OVCAR-4 ovarian) was greater than 100 µM, the TGI (LOX IMVI melanoma) was greater than 100 µM and the TGI (SK-OV-3 ovarian) was greater than 100 µM. It also gave a TGI (HCT-116 colon) greater than 100 µM, a TGI (DU-145 prostate) greater than 100 µM and a TGI (UO-31 renal) greater than 100 µM. It also gave a TGI (786-0 renal) greater than 100 µM, a TGI (HCT-15 colon) greater than 100 µM and a TGI (SN12C renal) greater than 100 µM. The TGI (K-562 leukemia) was greater than 100 µM, the TGI (SF-295 CNS) was greater than 100 µM and the TGI (SK-MEL-28 melanoma) was greater than 100 µM. For the same compound, the TGI (NCI-H522 lung) was greater than 100 µM, the TGI (BT-549 breast) was greater than 100 µM and the TGI (SNB-19 CNS) was greater than 100 µM. For the same compound, the TGI (SK-MEL-5 melanoma) was greater than 100 µM, the TGI (RXF 393 renal) was greater than 100 µM and the TGI (CAKI-1 renal) was greater than 100 µM. It also gave a TGI (MDA-MB-231 breast) greater than 100 µM, a TGI (NCI-H23 lung) greater than 100 µM and a TGI (SNB-75 CNS) greater than 100 µM.

`COC(=O)C1=C(C(=O)OC)SC(=C2S[C@@H]3[C@@H]4C[C@H]([C@@H]3S2)[C@H]2C(=O)OC(=O)[C@@H]42)S1` was tested, and the TGI (KM12 colon) was greater than 100 µM, the TGI (HOP-62 NSCLC) was greater than 100 µM and the TGI (OVCAR-8 ovarian) was greater than 100 µM. The TGI (U251 CNS) was greater than 100 µM, the TGI (EKVX NSCLC) was greater than 100 µM and the TGI (MCF7 breast) was greater than 100 µM. It also gave a TGI (OVCAR-5 ovarian) greater than 100 µM, a TGI (A549 NSCLC) greater than 100 µM and a TGI (M14 melanoma) greater than 100 µM. For the same compound, the TGI (NCI-H226 lung) was greater than 100 µM, the TGI (NCI/ADR-RES ovarian) was greater than 100 µM and the TGI (HCC-2998 colon) was greater than 100 µM. It also gave a TGI (SK-MEL-2 melanoma) greater than 100 µM, a TGI (UACC-257 melanoma) greater than 100 µM and a TGI (PC-3 prostate) greater than 100 µM. It also gave a TGI (HS 578T breast) greater than 100 µM, a TGI (MDA-MB-435) greater than 100 µM and a TGI (SW-620 colon) greater than 100 µM. For the same compound, the TGI (UACC-62 melanoma) was greater than 100 µM, the TGI (IGROV1 ovarian) was greater than 100 µM and the TGI (A498 renal) was greater than 100 µM. The TGI (OVCAR-3 ovarian) was greater than 100 µM, the TGI (RPMI-8226 leukemia) was greater than 100 µM and the TGI (HL-60(TB) leukemia) was greater than 100 µM. The TGI (COLO 205 colon) was greater than 100 µM, the TGI (SF-539 CNS) was greater than 100 µM and the TGI (TK-10 renal) was greater than 100 µM. For the same compound, the TGI (CCRF-CEM leukemia) was greater than 100 µM, the TGI (MALME-3M melanoma) was greater than 100 µM and the TGI (HOP-92 NSCLC) was greater than 100 µM. It also gave a TGI (T-47D breast) greater than 100 µM, a TGI (OVCAR-4 ovarian) greater than 100 µM and a TGI (LOX IMVI melanoma) greater than 100 µM. It also gave a TGI (HCT-116 colon) greater than 100 µM, a TGI (DU-145 prostate) greater than 100 µM and a TGI (ACHN renal) greater than 100 µM. It also gave a TGI (UO-31 renal) greater than 100 µM, a TGI (MOLT-4 leukemia) greater than 100 µM and a TGI (786-0 renal) greater than 100 µM. The TGI (HCT-15 colon) was greater than 100 µM, the TGI (SN12C renal) was greater than 100 µM and the TGI (K-562 leukemia) was greater than 100 µM. It also gave a TGI (SF-295 CNS) greater than 100 µM, a TGI (SK-MEL-28 melanoma) greater than 100 µM and a TGI (NCI-H522 lung) greater than 100 µM. It also gave a TGI (HT29 colon) greater than 100 µM, a TGI (SF-268 CNS) greater than 100 µM and a TGI (BT-549 breast) greater than 100 µM. For the same compound, the TGI (SNB-19 CNS) was greater than 100 µM, the TGI (SK-MEL-5 melanoma) was greater than 100 µM and the TGI (RXF 393 renal) was greater than 100 µM. It also gave a TGI (CAKI-1 renal) greater than 100 µM, a TGI (MDA-MB-231 breast) greater than 100 µM and a TGI (NCI-H23 lung) greater than 100 µM.

For `Oc1cccc(/C=N/Nc2nnc(N/N=C/c3cccc(O)c3)c3ccccc23)c1`, the TGI (KM12 colon) was greater than 100 µM, the TGI (HOP-62 NSCLC) was 33 µM and the TGI (OVCAR-8 ovarian) was 18.1 µM. The TGI (U251 CNS) was 29.6 µM, the TGI (EKVX NSCLC) was 43.6 µM and the TGI (MCF7 breast) was greater than 100 µM. The TGI (OVCAR-5 ovarian) was greater than 100 µM, the TGI (SR leukemia) was 7.06 µM and the TGI (NCI-H460 lung) was greater than 100 µM. For the same compound, the TGI (A549 NSCLC) was 57.5 µM, the TGI (M14 melanoma) was greater than 100 µM and the TGI (NCI-H226 lung) was 30.7 µM. The TGI (NCI/ADR-RES ovarian) was 60.1 µM, the TGI (SK-MEL-2 melanoma) was 83.6 µM and the TGI (UACC-257 melanoma) was greater than 100 µM. For the same compound, the TGI (PC-3 prostate) was 44.4 µM, the TGI (HS 578T breast) was 52.9 µM and the TGI (MDA-MB-435) was 81 µM. It also gave a TGI (SW-620 colon) of 56.8 µM, a TGI (UACC-62 melanoma) of 30.2 µM and a TGI (IGROV1 ovarian) of 47.7 µM. For the same compound, the TGI (OVCAR-3 ovarian) was 35.8 µM, the TGI (RPMI-8226 leukemia) was 92.2 µM and the TGI (COLO 205 colon) was greater than 100 µM. It also gave a TGI (SF-539 CNS) of 34.6 µM, a TGI (TK-10 renal) of 50.9 µM and a TGI (CCRF-CEM leukemia) of 88.3 µM. For the same compound, the TGI (MALME-3M melanoma) was 57.3 µM, the TGI (HOP-92 NSCLC) was 76.1 µM and the TGI (T-47D breast) was 61.8 µM. It also gave a TGI (OVCAR-4 ovarian) of 82.6 µM, a TGI (LOX IMVI melanoma) of 34.1 µM and a TGI (SK-OV-3 ovarian) greater than 100 µM. For the same compound, the TGI (HCT-116 colon) was 43.1 µM, the TGI (DU-145 prostate) was 66 µM and the TGI (ACHN renal) was 40.7 µM. It also gave a TGI (UO-31 renal) of 52 µM, a TGI (MOLT-4 leukemia) of 6.43 µM and a TGI (786-0 renal) of 38.5 µM. For the same compound, the TGI (HCT-15 colon) was 39 µM, the TGI (SN12C renal) was 30.5 µM and the TGI (K-562 leukemia) was 47.6 µM. It also gave a TGI (SF-295 CNS) of 31.8 µM, a TGI (SK-MEL-28 melanoma) of 60.2 µM and a TGI (NCI-H522 lung) of 53.1 µM. For the same compound, the TGI (HT29 colon) was greater than 100 µM, the TGI (SF-268 CNS) was greater than 100 µM and the TGI (BT-549 breast) was 44.8 µM. For the same compound, the TGI (SNB-19 CNS) was greater than 100 µM, the TGI (SK-MEL-5 melanoma) was 8.86 µM and the TGI (RXF 393 renal) was greater than 100 µM. The TGI (CAKI-1 renal) was 83.3 µM, the TGI (MDA-MB-231 breast) was 35.8 µM and the TGI (NCI-H23 lung) was 48.6 µM. For the same compound, the TGI (SNB-75 CNS) was 50.5 µM.
